Source: patent publication US20260015350A1, “AZAQUINAZOLINE PAN-KRAS INHIBITORS” (Mirati Therapeutics, Inc., priority 2022, published 2026)

Tests used:
KRas^G12V = target: T1, KRas^G12V (Homo sapiens, UniProt P01116, G12V); assay: KRas binding assay (TR-FRET tracer displacement), KRas G12V
T1 construct: Biotinylated KRas (corresponding to amino acids 1-169, produced at Accelegan Inc.); biotin (biotinylated); purchased Accelegan Inc

[1] = system: KRas-mediated phosphorylation of ERK in MKN1 cells; assay: Inhibition of KRas-mediated phosphorylation of ERK (Cisbio HTRF pERK), MKN1 cells; format: cell-based; conditions: Homo sapiens, MKN-1
Method in brief: (§1)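 Overnight culture at 37° C./5% CO2 in RPMI containing 10% FBS, seeded 6,000 cells per well, preceded the assay. A covered 4-hour incubation at room temperature followed, then HTRF signal for phosphorylated ERK was measured.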

KRas^WT = target: T2, KRas^WT (Homo sapiens, UniProt P01116); assay: KRas binding assay (TR-FRET tracer displacement), KRas WT; conditions: for inhibition at 0.01 µM: single point, 10 nM compound, TR-FRET; for IC50: TR-FRET tracer displacement, KRas WT
T2 construct: Biotinylated KRas (corresponding to amino acids 1-169, produced at Accelegan Inc.); biotin (biotinylated); purchased Accelegan Inc

[2] = system: KRas-mediated phosphorylation of ERK in PSN1 cells; assay: Inhibition of KRas-mediated phosphorylation of ERK (Cisbio HTRF pERK), PSN1 cells; format: cell-based; conditions: Homo sapiens
Method in brief: as §1

[3] = system: KRas-mediated phosphorylation of ERK in H460 cells; assay: Inhibition of KRas-mediated phosphorylation of ERK (Cisbio HTRF pERK), H460 cells; format: cell-based; conditions: Homo sapiens; for inhibition at 0.1 µM: NCI-H460, 3 h, single point, 100 nM compound, 3 hrs; for IC50: NCI-H460, HTRF pERK
Method in brief: (§2)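 Compound treatment lasts 3 hrs on 6,000 seeded cells, testing 10 doses from a 10 uM top concentration in 3-fold decrements at 0.8% final DMSO. Trametinib at 0.2 uM defines the Min signal. Detection is HTRF on cold-lysed cell extracts.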

KRas^G12A = target: T3, KRas^G12A (Homo sapiens, UniProt P01116, G12A); assay: KRas binding assay (TR-FRET tracer displacement), KRas G12A; conditions: for inhibition at 0.01 µM: single point, 10 nM compound, TR-FRET; for IC50: TR-FRET tracer displacement, KRas G12A
T3 construct: Biotinylated KRas (corresponding to amino acids 1-169, produced at Accelegan Inc.); biotin (biotinylated); purchased Accelegan Inc

KRas^G12R = target: T4, KRas^G12R (Homo sapiens, UniProt P01116, G12R); assay: KRas binding assay (TR-FRET tracer displacement), KRas G12R
T4 construct: Biotinylated KRas (corresponding to amino acids 1-169, produced at Accelegan Inc.); biotin (biotinylated); purchased Accelegan Inc

KRas^G13D = target: T5, KRas^G13D (Homo sapiens, UniProt P01116, G13D); assay: KRas binding assay (TR-FRET tracer displacement), KRas G13D; conditions: for inhibition at 0.01 µM: single point, 10 nM compound, TR-FRET; for IC50: TR-FRET tracer displacement, KRas G13D
T5 construct: Biotinylated KRas (corresponding to amino acids 1-169, produced at Accelegan Inc.); biotin (biotinylated); purchased Accelegan Inc

[4] = system: KRas-mediated phosphorylation of ERK in AsPC-1 cells; assay: Inhibition of KRas-mediated phosphorylation of ERK (Cisbio HTRF pERK), AsPC-1 cells; format: cell-based; conditions: Homo sapiens, ASPC1, AsPC-1 cells; HTRF pERK
Method in brief: as §2

[5] = system: KRas-mediated phosphorylation of ERK in H727 cells; assay: Inhibition of KRas-mediated phosphorylation of ERK (Cisbio HTRF pERK), H727 cells; format: cell-based; conditions: Homo sapiens, NCI-H727, H727 cells; HTRF pERK
Method in brief: as §2

[6] = system: KRas-mediated phosphorylation of ERK in HCT116 cells; assay: Inhibition of KRas-mediated phosphorylation of ERK (Cisbio HTRF pERK), HCT116 cells; format: cell-based; conditions: Homo sapiens; for inhibition at 0.1 µM: HCT-116, 3 h, single point, 100 nM compound, 3 hrs; for IC50: HCT-116, HTRF pERK
Method in brief: (§3)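 Signal read by HTRF (d2/Cryptate antibody pair, 2 hr room-temperature incubation on lysate). Cells: 6,000 per well, 3 hr compound exposure. Titration: 10 uM highest, 3-fold, 10 points.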

KRas^G12C = target: T6, KRas^G12C (Homo sapiens, UniProt P01116, G12C); assay: KRas binding assay (TR-FRET tracer displacement), KRas G12C; conditions: for inhibition at 0.01 µM: single point, 10 nM compound, TR-FRET; for IC50: TR-FRET tracer displacement, KRas G12C
T6 construct: Biotinylated KRas (corresponding to amino acids 1-169, produced at Accelegan Inc.); biotin (biotinylated); purchased Accelegan Inc

KRas^G12D = target: T7, KRas^G12D (Homo sapiens, UniProt P01116, G12D); assay: KRas binding assay (TR-FRET tracer displacement), KRas G12D
T7 construct: Biotinylated KRas (corresponding to amino acids 1-169, produced at Accelegan Inc.); biotin (biotinylated); purchased Accelegan Inc

KRas^Q61H = target: T8, KRas^Q61H (Homo sapiens, UniProt P01116, Q61H); assay: KRas binding assay (TR-FRET tracer displacement), KRas Q61H; conditions: for inhibition at 0.01 µM: single point, 10 nM compound, TR-FRET; for IC50: TR-FRET tracer displacement, KRas Q61H
T8 construct: Biotinylated KRas (corresponding to amino acids 1-169, produced at Accelegan Inc.); biotin (biotinylated); purchased Accelegan Inc

[7] = system: KRas-mediated phosphorylation of ERK in H358 cells; assay: Inhibition of KRas-mediated phosphorylation of ERK (Cisbio HTRF pERK), H358 cells; format: cell-based; conditions: Homo sapiens; for inhibition at 0.1 µM: NCI-H358, 3 h, single point, 100 nM compound, 3 hrs; for IC50: NCI-H358, HTRF pERK
Method in brief: as §2

KRas^G12S = target: T9, KRas^G12S (Homo sapiens, UniProt P01116, G12S); assay: KRas binding assay (TR-FRET tracer displacement), KRas G12S; conditions: for inhibition at 0.01 µM: single point, 10 nM compound, TR-FRET; for IC50: TR-FRET tracer displacement, KRas G12S
T9 construct: Biotinylated KRas (corresponding to amino acids 1-169, produced at Accelegan Inc.); biotin (biotinylated); purchased Accelegan Inc

[8] = system: KRas-mediated phosphorylation of ERK in A549 cells; assay: Inhibition of KRas-mediated phosphorylation of ERK (Cisbio HTRF pERK), A549 cells; format: cell-based; conditions: Homo sapiens; for inhibition at 0.1 µM: A549, 3 h, single point, 100 nM compound, 3 hrs; for IC50: HTRF pERK
Method in brief: as §3

T7 sequence (P01116 1-169 isoform P01116-2 G12D): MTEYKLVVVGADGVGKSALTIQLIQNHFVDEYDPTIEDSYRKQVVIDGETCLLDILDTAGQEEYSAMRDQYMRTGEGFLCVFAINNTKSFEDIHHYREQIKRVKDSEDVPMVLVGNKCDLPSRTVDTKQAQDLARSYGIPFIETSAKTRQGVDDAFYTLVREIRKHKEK
T6 sequence (P01116 1-169 isoform P01116-2 G12C): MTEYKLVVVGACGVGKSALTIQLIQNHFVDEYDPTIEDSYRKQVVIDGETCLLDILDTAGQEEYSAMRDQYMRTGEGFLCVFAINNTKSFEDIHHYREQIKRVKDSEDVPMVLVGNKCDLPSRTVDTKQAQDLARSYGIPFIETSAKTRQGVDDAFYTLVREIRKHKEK
T4 sequence (P01116 1-169 isoform P01116-2 G12R): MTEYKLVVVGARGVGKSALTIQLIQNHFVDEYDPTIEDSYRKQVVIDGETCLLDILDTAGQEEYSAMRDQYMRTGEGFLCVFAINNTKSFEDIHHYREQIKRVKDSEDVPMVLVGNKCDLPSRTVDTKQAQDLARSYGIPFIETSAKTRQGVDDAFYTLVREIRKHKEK
T5 sequence (P01116 1-169 isoform P01116-2 G13D): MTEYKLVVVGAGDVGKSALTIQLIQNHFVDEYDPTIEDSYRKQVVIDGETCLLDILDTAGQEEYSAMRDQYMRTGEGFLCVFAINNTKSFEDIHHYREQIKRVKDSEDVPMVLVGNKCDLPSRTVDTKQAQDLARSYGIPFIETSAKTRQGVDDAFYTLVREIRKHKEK
T1 sequence (P01116 1-169 isoform P01116-2 G12V): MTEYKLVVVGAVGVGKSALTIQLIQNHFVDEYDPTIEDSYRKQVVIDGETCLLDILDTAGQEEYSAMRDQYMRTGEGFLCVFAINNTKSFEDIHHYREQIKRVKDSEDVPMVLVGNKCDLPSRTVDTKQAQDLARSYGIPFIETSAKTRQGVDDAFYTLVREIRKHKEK
T3 sequence (P01116 1-169 isoform P01116-2 G12A): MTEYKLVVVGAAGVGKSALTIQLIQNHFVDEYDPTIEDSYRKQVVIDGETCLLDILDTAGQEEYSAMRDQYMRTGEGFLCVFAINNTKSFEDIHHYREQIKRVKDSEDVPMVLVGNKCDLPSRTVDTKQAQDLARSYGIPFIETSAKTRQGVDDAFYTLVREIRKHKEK
T9 sequence (P01116 1-169 isoform P01116-2 G12S): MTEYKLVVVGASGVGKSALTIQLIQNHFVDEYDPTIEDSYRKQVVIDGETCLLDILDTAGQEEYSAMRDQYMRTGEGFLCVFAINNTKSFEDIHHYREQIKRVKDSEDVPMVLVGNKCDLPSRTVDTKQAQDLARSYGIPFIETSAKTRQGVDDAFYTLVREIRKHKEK
T8 sequence (P01116 1-169 isoform P01116-2 Q61H): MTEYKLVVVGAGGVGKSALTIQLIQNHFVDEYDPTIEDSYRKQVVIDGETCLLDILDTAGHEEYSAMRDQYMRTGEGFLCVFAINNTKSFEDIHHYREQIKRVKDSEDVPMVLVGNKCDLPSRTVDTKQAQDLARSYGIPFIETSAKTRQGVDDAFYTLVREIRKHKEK
T2 sequence (P01116 1-169 isoform P01116-2): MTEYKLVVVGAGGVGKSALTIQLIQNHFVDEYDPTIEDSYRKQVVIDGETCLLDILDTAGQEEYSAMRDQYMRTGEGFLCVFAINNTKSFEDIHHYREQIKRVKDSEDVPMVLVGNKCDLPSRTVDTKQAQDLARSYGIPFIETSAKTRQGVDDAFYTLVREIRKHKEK

SMILES	IC50 (KRas^G12V)	IC50 [1]	inhibition at 0.01 µM (KRas^WT)	IC50 [2]	inhibition at 0.1 µM [3]	inhibition at 0.01 µM (KRas^G12A)	IC50 (KRas^G12R)	inhibition at 0.01 µM (KRas^G13D)	IC50 [4]	IC50 [5]	inhibition at 0.01 µM (KRas^G12C)	IC50 (KRas^G12D)	inhibition at 0.01 µM (KRas^Q61H)	inhibition at 0.1 µM [7]	inhibition at 0.01 µM (KRas^G12S)	inhibition at 0.1 µM [8]	IC50 [3]	IC50 [6]	IC50 [7]	IC50 [8]	also measured
CCc1c(F)ccc2cc(O)cc(-c3ncc4c(N5CCCC6(C5)NC(=O)NC6=O)nc(OC[C@]56CCCN5[C@H](COC(=O)N(C)C)CC6)nc4c3F)c12 (stereo partly drawn) [Example 709, ((3S,7aR)-7a-(((4-(2,4-dioxo-1,3,7-triazaspiro[4.5]decan-7-yl)-7-(8-ethyl-7-fluoro-3-hydroxynaphthalen-1-yl)-8-fluoropyrido[4,3-d]pyrimidin-2-yl)oxy)methyl)hexahydro-1H-pyrrolizin-3-yl)methyl dimethylcarbamate]	< 2 nM	3 nM	91%	253 nM	88%	80%	< 2 nM	97%	63 nM	53 nM	95%	< 2 nM	99%	101%	94%	62%	–	–	–	–	inhibition at 0.1 µM [6]: 65%
CCc1c(F)ccc2cc(O)cc(-c3ncc4c(N5CCC(O)c6nn(C(=O)N(C)C)cc6C5)nc(OC[C@@]56CCCN5C[C@H](F)C6)nc4c3F)c12 (stereo partly drawn) [Example 674, 5-(7-(8-ethyl-7-fluoro-3-hydroxynaphthalen-1-yl)-8-fluoro-2-(((2R,7aS)-2-fluorohexahydro-1H-pyrrolizin-7a-yl)methoxy)pyrido[4,3-d]pyrimidin-4-yl)-8-hydroxy-N,N-dimethyl-5,6,7,8-tetrahydropyrazolo[4,3-c]azepine-2(4H)-carboxamide]	< 2 nM	6 nM	91%	> 10000 nM	63%	93%	< 2 nM	92%	9 nM	21 nM	98%	< 2 nM	95%	97%	97%	74%	69 nM	191 nM	2 nM	30 nM	inhibition at 0.1 µM [6]: 17%
CCc1c(F)ccc2cc(O)cc(-c3ncc4c(N5CCCn6nc(C(=O)N(C)C)cc6C5)nc(OC[C@]56CCCN5[C@H](COC(=O)N(C)C)CC6)nc4c3F)c12 [Example 714, ((3S,7aR)-7a-(((4-(2-(dimethylcarbamoyl)-7,8-dihydro-4H-pyrazolo[1,5-a][1,4]diazepin-5(6H)-yl)-7-(8-ethyl-7-fluoro-3-hydroxynaphthalen-1-yl)-8-fluoropyrido[4,3-d]pyrimidin-2-yl)oxy)methyl)hexahydro-1H-pyrrolizin-3-yl)methyl dimethylcarbamate]	< 2 nM	95 nM	85%	> 10000 nM	–	89%	2 nM	85%	26 nM	89 nM	94%	< 2 nM	87%	73%	95%	16%	193 nM	760 nM	–	–	–
O=S1(=O)NCC2(CCCN(c3nc(OCC45CCCN4CCC5)nc4c(F)c(-c5cc(O)cc(Cl)c5C5CC5)ncc34)C2)N1 (stereo not drawn) [Example 745, 7-(7-(3-chloro-2-cyclopropyl-5-hydroxyphenyl)-8-fluoro-2-((hexahydro-1H-pyrrolizin-7a-yl)methoxy)pyrido[4,3-d]pyrimidin-4-yl)-2-thia-1,3,7-triazaspiro[4.5]decane 2,2-dioxide]	< 2 nM	511 nM	–	4280 nM	–	–	< 2 nM	–	867 nM	701 nM	–	< 2 nM	–	–	–	–	516 nM	1710 nM	185 nM	815 nM	IC50 (KRas^WT): 4 nM; IC50 (KRas^G12A): < 2 nM; IC50 (KRas^G13D): 3 nM; IC50 (KRas^G12C): 3 nM; IC50 (KRas^Q61H): < 2 nM; IC50 (KRas^G12S): 5 nM
CCc1cccc2cc3[nH]ncc3c(-c3ncc4c(N5CCCC6(CNC(=O)N6)C5)nc(OC[C@@]56CCCN5C[C@H](F)C6)nc4c3F)c12 (stereo partly drawn) [Example 769, 7-(7-(5-ethyl-1H-benzo[f]indazol-4-yl)-8-fluoro-2-(((2R,7aS)-2-fluorohexahydro-1H-pyrrolizin-7a-yl)methoxy)pyrido[4,3-d]pyrimidin-4-yl)-1,3,7-triazaspiro[4.5]decan-2-one]	< 2 nM	226 nM	–	> 10000 nM	–	–	< 2 nM	–	510 nM	567 nM	–	< 2 nM	–	–	–	–	661 nM	1240 nM	88 nM	2190 nM	IC50 (KRas^WT): < 2 nM; IC50 (KRas^G12A): < 2 nM; IC50 (KRas^G13D): < 2 nM; IC50 (KRas^G12C): < 2 nM; IC50 (KRas^Q61H): < 2 nM; IC50 (KRas^G12S): < 2 nM
CN(C)C(=O)c1cc2n(n1)CCCN(c1nc(OC[C@@]34CCCN3C[C@H](F)C4)nc3c(F)c(-c4c(C5CC5)c(Cl)cc5[nH]ncc45)ncc13)C2 [Example 882, 5-(7-(6-chloro-5-cyclopropyl-1H-indazol-4-yl)-8-fluoro-2-(((2R,7aS)-2-fluorotetrahydro-1H-pyrrolizin-7a(5H)-yl)methoxy)pyrido[4,3-d]pyrimidin-4-yl)-N,N-dimethyl-5,6,7,8-tetrahydro-4H-pyrazolo[1,5-a][1,4]diazepine-2-carboxamide]	3 nM	521 nM	–	> 10000 nM	–	–	8 nM	–	677 nM	1300 nM	–	2 nM	–	–	–	–	4460 nM	7110 nM	429 nM	> 10000 nM	IC50 (KRas^WT): 13 nM; IC50 (KRas^G12A): 9 nM; IC50 (KRas^G13D): 15 nM; IC50 (KRas^G12C): 5 nM; IC50 (KRas^Q61H): 15 nM; IC50 (KRas^G12S): 5 nM
CCc1c(F)ccc2cc(O)cc(-c3ncc4c(N5CCCCn6nc(C(=O)N7CCOCC7)cc6C5)nc(OC[C@@]56CCCN5C[C@H](F)C6)nc4c3F)c12 [Example 690, (5-(7-(8-ethyl-7-fluoro-3-hydroxynaphthalen-1-yl)-8-fluoro-2-(((2R,7aS)-2-fluorotetrahydro-1H-pyrrolizin-7a(5H)-yl)methoxy)pyrido[4,3-d]pyrimidin-4-yl)-4,5,6,7,8,9-hexahydropyrazolo[1,5-a][1,4]diazocin-2-yl)(morpholino)methanone]	< 2 nM	16 nM	91%	7620 nM	37%	93%	< 2 nM	90%	81 nM	37 nM	97%	< 2 nM	92%	79%	96%	4%	–	–	–	–	inhibition at 0.1 µM [6]: 20%
